Values after ≈ are worked out from the molar mass of the structure shown. Like-named read-outs stand apart in the source and are kept apart here.
How the values were obtained:
[1] = Equilibrium solubility, 24 hours at 37°C in 4 media, with XRPD of residual solid; format: physicochemical; conditions: for Whether the Crystal Form Changed: 24 h in FaSSGF; for Crystal Form: XRPD; for solubility at 24 h: 37 °C, thermodynamic from solid, read-out: Solubility after 24 h
Experimental: After 24 hours, samples were taken and centrifuged for separation. The obtained solids were tested by XRPD, and the supernatants were filtered for solubility testing.

[2] = Hygroscopicity by dynamic vapor sorption (DVS) at 25°C; format: physicochemical
[3] = Solid-state stability under long-term and accelerated conditions (HPLC purity, crystal form); format: physicochemical; conditions: for Purity (% Area) / purity decrease: 10 days; for crystal form change: before and after testing, long-term and accelerated conditions; for Initial Purity (% Area): before storage
Source text: [table] […] Table E-3: Results of Solid-State Stability Determination

[4] = High-temperature stability at 60°C (HPLC purity, crystal form); format: physicochemical; conditions: for Purity (% Area) / purity decrease: 60°C; for Initial Purity (% Area): before storage
Source text: [table] […] Table E-4: Results of High-Temperature Stability Determination

[5] = High-humidity stability at 90% RH (HPLC purity, crystal form); format: physicochemical; conditions: for Purity (% Area) / purity decrease: 90% RH; for Initial Purity (% Area): before storage
Source text: [table] […] Table E-5: Results of High-Humidity Stability Determination

[6] = Pressure stability at 1000 Mpa for 5 minutes (HPLC purity, crystal form); format: physicochemical; conditions: for Purity (% Area) / purity decrease: 1000 Mpa, 5 min; for Initial Purity (% Area): before pressing
Source text: [table] […] Table E-6: Results of Pressure Stability Determination

[7] = Crystal form stability on drying or sealed storage; format: physicochemical; conditions: dried at 50°C for 3 hours
Source text: The 4 metastable crystal forms described in Example 4 had lower crystal form stability than each crystal form described in Example 3.

[8] = Suspension competition test of Crystal Form A and Crystal Form G; format: physicochemical; conditions: Crystal Form A and Crystal Form G in EtOH and a mixture of MeOH and water, room temperature and 50°C
Human GLP-1R = biological target: T1, Human GLP-1R (Homo sapiens, UniProt P43220); experiment: GLP-1R agonistic activity, HTRF cAMP assay in 293A GFP-GLP-1R cells; format: cell-based; conditions: cAMP pathway
T1 construct: expressed in transfected cells; host or cells: 293A cells stably expressing GLP-1R-GFP
T1 sequence (P43220 24-463): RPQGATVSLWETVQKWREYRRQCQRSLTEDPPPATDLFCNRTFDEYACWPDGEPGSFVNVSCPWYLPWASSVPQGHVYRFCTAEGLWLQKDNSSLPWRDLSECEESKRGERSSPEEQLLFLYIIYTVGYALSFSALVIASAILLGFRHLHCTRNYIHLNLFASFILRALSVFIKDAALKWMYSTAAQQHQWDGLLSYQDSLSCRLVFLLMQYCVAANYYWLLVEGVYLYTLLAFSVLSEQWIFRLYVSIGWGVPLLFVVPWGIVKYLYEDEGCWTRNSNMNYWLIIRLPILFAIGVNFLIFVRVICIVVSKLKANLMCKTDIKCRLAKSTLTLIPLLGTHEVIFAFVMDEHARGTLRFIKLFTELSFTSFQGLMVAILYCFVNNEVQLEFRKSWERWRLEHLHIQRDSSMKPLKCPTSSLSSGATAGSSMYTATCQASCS
Source text: The method was a competitive immunoassay.

[9] = accelerated conditions (40°C/75% RH)
[10] = long-term conditions (25°C/60% RH)

Structure (SMILES)	Whether the Crystal Form Changed [1]	Solubility after 24 h ([1]; FaSSGF)	Crystal Form ([1]; solid after 24 h in FaSSGF)	Crystal Form ([1]; solid after 24 h in FaSSIF)	Crystal Form ([1]; solid after 24 h in FeSSIF)	Crystal Form ([1]; solid after 24 h in H2O)	Sample Weight Change at 80% RH (%) [2]	Purity (% Area) ([3]; 25°C/60%RH)	Purity (% Area) ([3]; 40°C/75%RH)	purity decrease [3, 9]	crystal form change [3]	Initial Purity (% Area) [3]	purity decrease [3, 10]	Purity (% Area) ([4]; 1 day)	purity decrease ([4]; 1 day)	Purity (% Area) ([4]; 10 days)	purity decrease ([4]; 10 days)	Initial Purity (% Area) [4]	Purity (% Area) ([5]; 1 Day)	purity decrease ([5]; 1 day)	further results
O=C(O)c1ccc2nc(CN3CCC(c4cccc(OCc5ccc(C6COC6)cc5F)n4)CC3)n(C[C@@H]3CCO3)c2c1 [Crystal Form G, (S)-2-((4-(6-((2-fluoro-4-(oxetan-3-yl)benzyl)oxy)pyridin-2-yl)piperidin-1-yl)methyl)-1-(oxetan-2-ylmethyl)-1H-benzo[d]imidazole-6-carboxylic acid]	YES	<10 µg/mL	a hydrochloride salt was formed	Crystal Form G	Crystal Form G	Crystal Form G	0.73%	97.37 % Area	97.43 % Area	about 0.4%	no crystal form change was observed	97.81 % Area	about 0.4%	97.55 % Area	about 0.3%	96.63 % Area	about 1.2%	97.81 % Area	97.67 % Area	about 0.1%	Solubility after 24 h ([1]; FaSSIF): 80 µg/mL (≈ 136 µM); Solubility after 24 h ([1]; FeSSIF): 270 µg/mL (≈ 460 µM); Purity (% Area) ([5]; 10 days): 96.53 % Area; purity decrease ([5]; 10 days): about 1.3%; Initial Purity (% Area) [5]: 97.81 % Area; Purity (% Area) [6]: 97.65 % Area; purity decrease [6]: about 0.2%; Initial Purity (% Area) [6]: 97.81 % Area; crystal form change after drying [7]: no crystal form change is observed; outcome of suspension competition test [8]: thermodynamically more stable
O=C(O)c1ccc2nc(CN3CCC(c4cccc(OCc5ccc(C6COC6)cc5F)n4)CC3)n(C[C@@H]3CCO3)c2c1 [Crystal Form A, (S)-2-((4-(6-((2-fluoro-4-(oxetan-3-yl)benzyl)oxy)pyridin-2-yl)piperidin-1-yl)methyl)-1-(oxetan-2-ylmethyl)-1H-benzo[d]imidazole-6-carboxylic acid]	YES	200 µg/mL (≈ 341 µM)	a hydrochloride salt was formed	Crystal Form A	Crystal Form A	Crystal Form A	0.89%	97.50 % Area	97.33 % Area	about 0.8%	no crystal form change was observed	98.11 % Area	about 0.6%	98.00 % Area	about 0.1%	96.98 % Area	about 1.1%	98.11 % Area	97.77 % Area	about 0.3%	solubility at 24 h ([1]; FaSSIF (fasted-state simulated intestinal fluid), fassif, FaSSIF): 50 µg/mL (≈ 85.2 µM); solubility at 24 h ([1]; FeSSIF (fed-state simulated intestinal fluid), fessif, FeSSIF): 320 µg/mL (≈ 545 µM); solubility at 24 h ([1]; purified water, water, H2O): < 100 µg/mL; Purity (% Area) ([5]; 10 days): 97.07 % Area; purity decrease ([5]; 10 days): about 1.0%; Initial Purity (% Area) [5]: 98.11 % Area; Purity (% Area) [6]: 97.44 % Area; purity decrease [6]: about 0.7%; Initial Purity (% Area) [6]: 98.11 % Area; crystal form change after drying [7]: no crystal form change is observed; outcome of suspension competition test [8]: transforms into Crystal Form G
O=C(O)c1ccc2nc(CN3CCC(c4cccc(OCc5ccc(C6COC6)cc5F)n4)CC3)n(C[C@@H]3CCO3)c2c1 [Compound 1, (S)-2-((4-(6-((2-fluoro-4-(oxetan-3-yl)benzyl)oxy)pyridin-2-yl)piperidin-1-yl)methyl)-1-(oxetan-2-ylmethyl)-1H-benzo[d]imidazole-6-carboxylic acid]																					agonistic effect on GLP-1R (Human GLP-1R): strong agonistic effect
